Entries after “also recorded” stand apart in the source; their conditions may differ. Like-named read-outs stand apart in the source and are kept apart here. Where a SMILES comes first, the peptide text is derived from it. [ ]: non-standard residue; d: D form. The star is where a group is joined. Nle = CCCC[C@H](N)C(=O)O; Cbz = O=C(OCc1ccccc1)*
What was measured:
APP [1] = assay: Western blot analysis of APP C-terminal fragments (C99, C83, C470, ~55/~85-kDa CTFs) in AC29 cells stably transfected with APP; assay type: cell-based, human; design: steady state levels of C99 / APP-CTF levels (C99, C83, C470) compared with ALLN results: dose or concentration left out as unconfirmed
Description: Wild-type (WT) and cholesterol mutant (AC29 and 25RA) CHO cell lines were grown in Dulbecco's Modified Eagle Medium (DMEM) and Nutrient Mixture F-12 Ham (Sigma-Aldrich, St. Louis, Mo.), respectively. Media were supplemented with 10% (v/v) FBS (Atlanta Biologicals, Norcross, Ga.), 1% (v/v) L-Glutamine-Penicillin-Streptomycin solution (Sigma-Aldrich), and 0.4% (v/v) G418 Sulfate (Calbiochem, La Jolla, Calif.) as selection marker for cells stably transfected with cDNA constructs expressing APP751 or APP(ES/AA), and hygromycin for […]-[…] in a […] TOPO expression vector (Invitrogen, Carlsbad, Calif.). Cells were cultured at 37° C. in a water-saturated air/CO2 atmosphere. The following antibodies against APP were used throughout this study: 22C11 (monoclonal, against N-terminus; Chemicon International, Temecula, Calif.); 369 (monoclonal, against C-terminus; generous gift from Dr. Sam Gandy, Farber Institute for Neuroscience, Thomas Jefferson University, Philadelphia, Pa.); C7 and C8 (against C-terminus; generous gift from Dr. Dennis J. Selkoe, Harvard Medical School, Boston, Mass.); 4G8 (monoclonal, against […]β; Endogen, Woburn, Mass.); 6E10 (monoclonal, against residues 1-17 of Aβ; Senetek, St. Louis, Mo.). Antibodies against calreticulin (ER marker), GM130 (Golgi marker), and EEA-1 (early endosomes) were obtained from StressGen Biotechnologies Corp. (Victoria BC, Canada) and Transduction Laboratories (Lexington, Ky.). Anti-V5 antibody was from Invitrogen (Carlsbad, Calif.). Additional materials used in this study include the γ-secretase inhibitor DAPT (generous gift from Dr. Rudolph E. Tanzi, Massachusetts General Hospital, Charlestown, Mass.), the β-secretase inhibitor Z-VLL-CHO (Calbiochem, La Jolla, Calif.), ALLN (Calbiochem), lactacystin (Sigma-Aldrich), ammonium chloride (Sigma-Aldrich), chloroquine (Sigma-Aldrich), methyl-(3-cyclodextrin (Sigma-Aldrich), and mevastatin (Sigma).

AC29 cells [2] = assay: Cholesterol determinations (intracellular FC and CE pools); assay type: cell-based; design: cholesterol levels: dose or concentration left out as unconfirmed; conditions: AC29 cells stably transfected with APP
Description: For the determinations of intracellular pools of FC and CE, cells were first incubated ad equilibrium (for 3 days) in the presence of [^14C]Acetic acid (57.0 mCi/mmol) (Amersham Life Science, Elk Grove, Ill.), then washed twice in PBS and extracted in chloroform/methanol (2:1; v/v). The chloroform phase was dried, resuspended again in chloroform, and applied with standards to a Silica Gel-G (EM Science, Gibbstown, N.J.) Thin Layer Chromatography (TLC). Plates were developed in hexane/ethyl ether/acetic acid (87:20:1, v/v) and visualized with […]. Spots were scraped and counted in a liquid scintillation counter.

AC29 cells [3] = assay: Cell viability by release of lactate-dehydrogenase (LDH) into the media; assay type: cell-based; conditions: mβ-CD for 24 hours
Description: To establish whether the generation of the 55- and 85-kDa APP-CTFs was affected by FC in the absence of changes in CEs, we depleted AC29 cells of cholesterol using a combination of methyl β-cyclodextrin (m#-CD), a sterol-binding molecule, and mevastatin, an HMG-CoA reductase inhibitor. In our studies, mβ-CD was used for 24 hours to allow for cellular cholesterol to reach equilibrium. Cell viability was not affected, as assessed by the release of the cytosolic enzyme lactate-dehydrogenase (LDH) into the media. […] However, it is important to note that normalized FC in AC29 cells only recovered 50% of the Aβ secreted by WT CHO cells (FIG. 2B), the other 50% still missing presumably due to the absence of CE synthesis in these cells. Both ˜55- and ˜85-kDa APP-CTFs were undetectable after successful normalization of FC (FIG. 2C).

APP [4] = target: APP (Homo sapiens, UniProt P05067); assay: In vitro assays of APP degradation by recombinant HtrA2; assay type: biochemical
Chain of APP (Homo sapiens, UniProt P05067) (P05067 18-770): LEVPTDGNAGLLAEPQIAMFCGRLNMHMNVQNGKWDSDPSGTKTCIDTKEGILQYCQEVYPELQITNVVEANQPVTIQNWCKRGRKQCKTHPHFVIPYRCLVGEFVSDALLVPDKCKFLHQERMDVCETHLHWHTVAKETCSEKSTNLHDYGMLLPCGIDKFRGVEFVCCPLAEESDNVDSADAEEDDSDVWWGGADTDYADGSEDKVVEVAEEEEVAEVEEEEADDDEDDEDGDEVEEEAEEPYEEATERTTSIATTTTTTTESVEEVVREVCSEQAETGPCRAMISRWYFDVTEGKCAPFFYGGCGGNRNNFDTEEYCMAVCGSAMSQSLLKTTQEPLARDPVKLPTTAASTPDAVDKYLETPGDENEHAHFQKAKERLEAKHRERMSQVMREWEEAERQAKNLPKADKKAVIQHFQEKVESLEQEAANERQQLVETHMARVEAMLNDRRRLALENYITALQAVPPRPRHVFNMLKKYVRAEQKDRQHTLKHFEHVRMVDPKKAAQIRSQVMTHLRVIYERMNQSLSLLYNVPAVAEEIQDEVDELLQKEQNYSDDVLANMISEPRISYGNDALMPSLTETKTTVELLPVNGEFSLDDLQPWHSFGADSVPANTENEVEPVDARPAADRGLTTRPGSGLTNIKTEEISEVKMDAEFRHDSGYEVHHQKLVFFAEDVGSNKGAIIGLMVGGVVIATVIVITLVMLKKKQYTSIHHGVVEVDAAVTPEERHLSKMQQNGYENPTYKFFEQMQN
From the text: We determined that HtrA2 could serve as a chaperone binding to APP that under cellular stress could switch from chaperone to a protease that degrades misfolded APP. AC29 cells have elevated free (membrane) cholesterol level that may cause ER stress. In AC29 cells, levels of mature form of HtrA2 were elevated in the ER and Golgi as compared to the parental CHO cells (FIG. 10). Furthermore, HtrA2 localized to the cell surface in AC29 cells but not in the parental CHO cells (FIG. 11). Also we determined that HtrA2 co-purified with APP from mammalian cells (FIG. 10) and also co-immunoprecipitated with APP. In in vitro assays, recombinant HtrA2 degraded APP.

Molecule: CCCC[C@@H](C=O)NC(=O)[C@H](CC(C)C)NC(=O)[C@H](CC(C)C)NC(C)=O [ALLN] (Ac-Leu-Leu-[Nle]-aldehyde)
- steady state levels of C99 (APP [1]; alone, 24 hours): increased

Molecule: C[C@H](NC(=O)Cc1cc(F)cc(F)c1)C(=O)N[C@H](C(=O)OC(C)(C)C)c1ccccc1 [DAPT]
- C83 levels (APP [1]; 250 nM DAPT, antibody C7): increased

Molecule: CC[C@H](C)C(=O)O[C@H]1CCC=C2C=C[C@H](C)[C@H](CC[C@@H]3C[C@@H](O)CC(=O)O3)[C@H]21 [Mevastatin, mevastatin]
- cholesterol levels (AC29 cells [2]): did not induce significant changes

Molecule: CC(C)C[C@@H](C=O)NC(=O)[C@H](CC(C)C)NC(=O)[C@@H](NC(=O)OCc1ccccc1)C(C)C [Z-VLL-CHO] (Cbz-Val-Leu-Leu-aldehyde)
- increase in steady-state levels of C470 (APP [1]; Z-VLL-CHO (0.5 mM) alone, 24 hours): not evident

Molecule: Cl.N [ammonium chloride]
- steady-state levels of C470 (APP [1]; ammonium chloride (NH4Cl, 10 mM)): no effect; also recorded: did not affect

Molecule: CCN(CC)CCCC(C)Nc1ccnc2cc(Cl)ccc12 (stereo not shown) [chloroquine]
- steady-state levels of C470 (APP [1]): no effect; also recorded: did not affect

Molecule: CC(=O)N[C@@H](CSC(=O)[C@]1([C@@H](O)C(C)C)NC(=O)[C@H](C)[C@@H]1O)C(=O)O [lactacystin]
- APP-CTF levels (C99, C83, C470) compared with ALLN results (APP [1]; lactacystin instead of ALLN, with or without Z-VLL-CHO, 24 hours): Very similar results

Molecule: methyl β-cyclodextrin [mβ-CD]
- Cell viability (LDH release into the media) (AC29 cells [3]): not affected
- FC levels (AC29 cells [2]; mβ-CD (1 mM) alone): reduced, but did not normalize; also recorded: reduce but did not normalize

B1: recombinant HtrA2: serine protease containing a PDZ domain; protein with ζ cleavage activity (protein, UniProt O43464 134-458, looked up)
Serine protease HTRA2, …: AVPSPPPASPRSQYNFIADVVEKTAPAVVYIEILDRHPFLGREVPISNGSGFVVAADGLIVTNAHVVADRRRVRVRLLSGDTYEAVVTAVDPVADIATLRIQTKEPLPTLPLGRSADVRQGEFVVAMGSPFALQNTITSGIVSSAQRPARDLGLPQTNVEYIQTDAAIDFGNSGGPLVNLDGEVIGVNTMKVTAGISFAIPSDRLREFLHRGEKKNSSSGISGSQRRYIGVMMLTLSPSILAELQLREPSFPDVQHGVLIHKVILGSPAHRAGLRPGDVILAIGEQMVQNAEDVYEAVRTQSQLAVQIRRGRETLTLYVTPEVTE
- degradation of APP (APP [4]): degraded APP

Source: patent US20050170437A1, “Methods and compositions relating to modulating amyloid precursor protein cleavage” (The General Hospital Corporation, priority 2003, published 2005)
